# Experimental data: PubChem BioAssay AID1963829 (Molecular Pharmacology Branch, DTP, NCI, 2024)
# Tested on: 935938-334-R-J1-PDC complex spheroid viability
# Test: Anticancer human tumor 935938-334-R-J1-PDC patient-derived small intestine adenocarcinoma cell line growth inhibition [POLQ]
# Conditions: for IC50: curve of first compound; for viability, T/C: stronger effect = lower value
# How it was run: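 Complex spheroid viability model combining PDC tumour cells with endothelial (HUVEC) and MSC stromal cells. Novobiocin, ART-558 or RP6685 were tested singly and in combination with standard and investigational anticancer drugs. Each was titrated in half-log steps from near clinical Cmax, or from 10 microM where Cmax was unknown.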
# [1] = second compound 0.0316 µM, first compound 0.0316 µM
# [2] = second compound 0.0316 µM, first compound 0.1 µM
# [3] = second compound 0.0316 µM, first compound 0.316 µM
# [4] = second compound 0.0316 µM, first compound 1 µM
# [5] = second compound 0.0316 µM, first compound 3.16 µM
# [6] = second compound 0.0316 µM, first compound 10 µM
# [7] = second compound 0.1 µM, first compound 0.0316 µM
# [8] = second compound 0.1 µM, first compound 0.1 µM
# [9] = second compound 0.1 µM, first compound 0.316 µM
# [10] = second compound 0.1 µM, first compound 1 µM
# [11] = second compound 0.1 µM, first compound 3.16 µM
# [12] = second compound 0.1 µM, first compound 10 µM
# [13] = second compound 0.316 µM, first compound 0.0316 µM
# [14] = second compound 0.316 µM, first compound 0.1 µM
# [15] = second compound 0.316 µM, first compound 0.316 µM
# [16] = second compound 0.316 µM, first compound 1 µM
# [17] = second compound 0.316 µM, first compound 3.16 µM
# [18] = second compound 0.316 µM, first compound 10 µM
# [19] = second compound 1 µM, first compound 0.0316 µM
# [20] = second compound 1 µM, first compound 0.1 µM
# [21] = second compound 1 µM, first compound 0.316 µM
# [22] = second compound 1 µM, first compound 1 µM
# [23] = second compound 1 µM, first compound 3.16 µM
# [24] = second compound 1 µM, first compound 10 µM
# [25] = second compound 3.16 µM, first compound 0.0316 µM
# [26] = second compound 3.16 µM, first compound 0.1 µM
# [27] = second compound 3.16 µM, first compound 0.316 µM
# [28] = second compound 3.16 µM, first compound 1 µM
# [29] = second compound 3.16 µM, first compound 3.16 µM
# [30] = second compound 3.16 µM, first compound 10 µM
# [31] = second compound 10 µM, first compound 0.0316 µM
# [32] = second compound 10 µM, first compound 0.1 µM
# [33] = second compound 10 µM, first compound 0.316 µM
# [34] = second compound 10 µM, first compound 1 µM
# [35] = second compound 10 µM, first compound 3.16 µM
# [36] = second compound 10 µM, first compound 10 µM
# 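Note: spheroids exposed to drugs for seven days before viability read.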
# 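Throughout, for viability, T/C: 100% = DMSO vehicle control wells.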
compound,measurement,setting,value
O=C(c1cc(Cc2n[nH]c(=O)c3ccccc23)ccc1F)N1CCN(C(=O)C2CC2)CC1 + Cc1cccc(N(C)C(=O)C2C(O)CCN2c2nc(C)cc(C(F)(F)F)c2C#N)c1,IC50,second compound 0.0316 µM,> 10 µM
same,IC50,second compound 0.1 µM,> 10 µM
same,IC50,second compound 0.316 µM,> 10 µM
same,IC50,second compound 1 µM,> 10 µM
same,IC50,second compound 3.16 µM,> 10 µM
same,IC50,second compound 10 µM,9.21 µM
same,"viability, T/C",[1],72.1%
same,"viability, T/C",[2],93.2%
same,"viability, T/C",[3],59.6%
same,"viability, T/C",[4],96.7%
same,"viability, T/C",[5],74.1%
same,"viability, T/C",[6],65.8%
same,"viability, T/C",[7],76.3%
same,"viability, T/C",[8],81%
same,"viability, T/C",[9],73.3%
same,"viability, T/C",[10],97.3%
same,"viability, T/C",[11],71.1%
same,"viability, T/C",[12],63.7%
same,"viability, T/C",[13],92.8%
same,"viability, T/C",[14],108%
same,"viability, T/C",[15],89.8%
same,"viability, T/C",[16],89.6%
same,"viability, T/C",[17],69.4%
same,"viability, T/C",[18],58.1%
same,"viability, T/C",[19],89.7%
same,"viability, T/C",[20],86.8%
same,"viability, T/C",[21],135%
same,"viability, T/C",[22],85.1%
same,"viability, T/C",[23],78.1%
same,"viability, T/C",[24],69.9%
same,"viability, T/C",[25],88.5%
same,"viability, T/C",[26],99.2%
same,"viability, T/C",[27],97.5%
same,"viability, T/C",[28],85.2%
same,"viability, T/C",[29],68.8%
same,"viability, T/C",[30],54.5%
same,"viability, T/C",[31],95.3%
same,"viability, T/C",[32],78.7%
same,"viability, T/C",[33],87.2%
same,"viability, T/C",[34],88.2%
same,"viability, T/C",[35],82.3%
same,"viability, T/C",[36],47.5%
CC(C)n1c(=O)n(C)c2cnc3cc(F)c(-c4ccc(OCCCN5CCCCC5)nc4)cc3c21 + Nc1ccc(C#CCN(C(=O)Cc2ncc(C(F)(F)F)cc2C(F)(F)F)c2ccc(F)cc2)nn1,IC50,second compound 0.0316 µM,> 10 µM
same,IC50,second compound 0.1 µM,> 10 µM
same,IC50,second compound 0.316 µM,> 10 µM
same,IC50,second compound 1 µM,> 10 µM
same,IC50,second compound 3.16 µM,> 10 µM
same,IC50,second compound 10 µM,> 10 µM
same,"viability, T/C",[1],94.3%
same,"viability, T/C",[2],84.3%
same,"viability, T/C",[3],132%
same,"viability, T/C",[4],82.9%
same,"viability, T/C",[5],90.5%
same,"viability, T/C",[6],79.4%
same,"viability, T/C",[7],100%
same,"viability, T/C",[8],102%
same,"viability, T/C",[9],111%
same,"viability, T/C",[10],84.9%
same,"viability, T/C",[11],117%
same,"viability, T/C",[12],90.6%
same,"viability, T/C",[13],101%
same,"viability, T/C",[14],99.4%
same,"viability, T/C",[15],84.9%
same,"viability, T/C",[16],101%
same,"viability, T/C",[17],113%
same,"viability, T/C",[18],98.4%
same,"viability, T/C",[19],120%
same,"viability, T/C",[20],77.8%
same,"viability, T/C",[21],102%
same,"viability, T/C",[22],113%
same,"viability, T/C",[23],128%
same,"viability, T/C",[24],85.7%
same,"viability, T/C",[25],93.2%
same,"viability, T/C",[26],97.7%
same,"viability, T/C",[27],98.2%
same,"viability, T/C",[28],92.4%
same,"viability, T/C",[29],100%
same,"viability, T/C",[30],94.4%
same,"viability, T/C",[31],107%
same,"viability, T/C",[32],88.8%
same,"viability, T/C",[33],82.9%
same,"viability, T/C",[34],107%
same,"viability, T/C",[35],110%
same,"viability, T/C",[36],109%
Cn1ncnc1[C@H]1c2n[nH]c(=O)c3cc(F)cc(c23)N[C@@H]1c1ccc(F)cc1 + Nc1ccc(C#CCN(C(=O)Cc2ncc(C(F)(F)F)cc2C(F)(F)F)c2ccc(F)cc2)nn1,IC50,second compound 0.0316 µM,> 0.1 µM
same,IC50,second compound 0.1 µM,> 0.1 µM
same,IC50,second compound 0.316 µM,> 0.1 µM
same,IC50,second compound 1 µM,> 0.1 µM
same,IC50,second compound 3.16 µM,> 0.1 µM
same,IC50,second compound 10 µM,> 0.1 µM
same,"viability, T/C","second compound 0.0316 µM, first compound 0.000316 µM",98%
same,"viability, T/C","second compound 0.0316 µM, first compound 0.001 µM",106%
same,"viability, T/C","second compound 0.0316 µM, first compound 0.00316 µM",94.5%
same,"viability, T/C","second compound 0.0316 µM, first compound 0.01 µM",73.1%
same,"viability, T/C",[1],83.9%
same,"viability, T/C",[2],101%
same,"viability, T/C","second compound 0.1 µM, first compound 0.000316 µM",68%
same,"viability, T/C","second compound 0.1 µM, first compound 0.001 µM",103%
same,"viability, T/C","second compound 0.1 µM, first compound 0.00316 µM",88.4%
same,"viability, T/C","second compound 0.1 µM, first compound 0.01 µM",97.9%
same,"viability, T/C",[7],86.5%
same,"viability, T/C",[8],92.9%
same,"viability, T/C","second compound 0.316 µM, first compound 0.000316 µM",102%
same,"viability, T/C","second compound 0.316 µM, first compound 0.001 µM",104%
same,"viability, T/C","second compound 0.316 µM, first compound 0.00316 µM",107%
same,"viability, T/C","second compound 0.316 µM, first compound 0.01 µM",105%
same,"viability, T/C",[13],106%
same,"viability, T/C",[14],76.9%
same,"viability, T/C","second compound 1 µM, first compound 0.000316 µM",95.5%
same,"viability, T/C","second compound 1 µM, first compound 0.001 µM",85.5%
same,"viability, T/C","second compound 1 µM, first compound 0.00316 µM",91.9%
same,"viability, T/C","second compound 1 µM, first compound 0.01 µM",79%
same,"viability, T/C",[19],96.6%
same,"viability, T/C",[20],85.1%
same,"viability, T/C","second compound 3.16 µM, first compound 0.000316 µM",69%
same,"viability, T/C","second compound 3.16 µM, first compound 0.001 µM",81.4%
same,"viability, T/C","second compound 3.16 µM, first compound 0.00316 µM",88.1%
same,"viability, T/C","second compound 3.16 µM, first compound 0.01 µM",86.9%
same,"viability, T/C",[25],85.1%
same,"viability, T/C",[26],111%
same,"viability, T/C","second compound 10 µM, first compound 0.000316 µM",107%
same,"viability, T/C","second compound 10 µM, first compound 0.001 µM",106%
same,"viability, T/C","second compound 10 µM, first compound 0.00316 µM",106%
same,"viability, T/C","second compound 10 µM, first compound 0.01 µM",94.3%
same,"viability, T/C",[31],99.5%
same,"viability, T/C",[32],92%
